According to article PMC7321065, “Discovery of New Schiff Bases Tethered Pyrazole Moiety: Design, Synthesis, Biological Evaluation, and Molecular Docking Study as Dual Targeting DHFR/DNA Gyrase Inhibitors with Immunomodulatory Activity” (Molecules, 2020):
≈ marks a conversion by molar mass, not a printed value. Where two headings read alike, the source gives them in different places.

Key:
Enterococcus faecalis [1] = assay: Inhibition zone, agar plate diffusion; format: cell-based; details: read-out: Inhibition zone (IZ)
Method: (§1) Antimicrobial activities of the newly formed Schiff bases (6a–d, 7a–d, 8a–d, and 9a–d) and reference drugs were evaluated against three Gram-positive, three Gram-negative, and two fungi strain at Al-Azhar University, Cairo, Egypt. The inhibition zones (IZ, in mm ± standard deviation) and the minimal inhibitory concentration (MIC) (μg/mL) were determined by the conventional paper disk diffusion method.
(§2) In Vitro Antimicrobial Activities
(§3) The antimicrobial activities inhibition zone (IZ, mm±standard deviation) of pyrazole Schiff bases ( 6a-d , 7a-d, 8a-d and 9a-d ) was measurement according to the agar plate diffusion method. Briefly, 100 µl of the […]
(§4) […] of each sample (at 0.5 mg/mL) was added to each well (10 mm diameter holes cut in the agar gel). The plates were incubated for 24 h at 37 °C (for bacteria and yeast) and for 72 h at 27 °C (for filamentous fungi), each test was repeated three times. After incubation, the microorganism's growth was observed. […]
(§5) drugs while Amphotericin B was used as standard antifungal drug. The resulting inhibition zone diameters were measured in millimeters and used as criterion for the antimicrobial activity. Solvent controls (DMSO) were included in every experiment as negative controls. DMSO was used for dissolving […]
(§6) the tested microorganisms. […]

Escherichia coli [2] = assay: Inhibition zone, agar plate diffusion; format: cell-based; details: read-out: Inhibition zone (IZ)
Method: as §1, §2, §3, §4, §5, §6

Bacillus subtilis [3] = assay: Inhibition zone, agar plate diffusion; format: cell-based; details: read-out: Inhibition zone (IZ)
Method: as §1, §2, §3, §4, §5, §6

Pseudomonas aeruginosa [4] = assay: Inhibition zone, agar plate diffusion; format: cell-based; details: read-out: Inhibition zone (IZ)
Method: as §1, §2, §3, §4, §5, §6

Fusarium oxysporum [5] = assay: Inhibition zone, agar plate diffusion; format: cell-based; details: read-out: Inhibition zone (IZ)
Method: as §1, §2, §3, §4, §5, §6
(§7) Bacteria were grown on nutrient agar medium, while fungi and yeast were grown on Sabouraud agar medium. […]

Salmonella typhi [6] = assay: Inhibition zone, agar plate diffusion; format: cell-based; details: Salmonella enterica, read-out: Inhibition zone (IZ)
Method: as §1, §2, §3, §4, §5, §6, §7

Staphylococcus aureus [7] = assay: Inhibition zone, agar plate diffusion; format: cell-based; details: read-out: Inhibition zone (IZ)
Method: as §1, §2, §3, §4, §5, §6, §7

Candida albicans [8] = assay: Inhibition zone, agar plate diffusion; format: cell-based; details: read-out: Inhibition zone (IZ)
Method: as §1, §2, §3, §4, §5, §6, §7

Enterococcus faecalis [9] = assay: MIC/MBC, paper disk diffusion; format: cell-based; details: E. faecalis
Method: as §1
(§8) In Vitro Antimicrobial Activities […]
(§9) DMSO was used for dissolving […]
(§10) the tested microorganisms.
(§11) The minimum inhibitory concentration (MIC), the minimum bactericidal concentration (MBC, µg/ml) and […]
(§12) and 9b) were determined by the conventional technique termed paper disk diffusion, by applying paper […]
(§13) Bacteria were grown on nutrient agar medium, while fungi and yeast were grown on Sabouraud agar medium. The purified streptomycin was dissolved in […]
(§14) inoculated with test organism. Growth inhibition was examined after 24 hr. from incubation at 37 °C for bacteria and after 72 hr. incubation at 27 °C for fungi and yeast. Each test was repeated three times. MIC was expressed as the lowest concentration inhibiting test organism’s growth. […]

Salmonella typhi [10] = assay: MIC/MBC, paper disk diffusion; format: cell-based; details: Salmonella enterica, TYPHI
Method: as §1, §8, §9, §10, §11, §12, §13, §14

Escherichia coli [11] = assay: MIC/MBC, paper disk diffusion; format: cell-based; details: Escherichia coli, E. coli
Method: as §1, §8, §9, §10, §11, §12, §13, §14

Bacillus subtilis [12] = assay: MIC/MBC, paper disk diffusion; format: cell-based; details: Bacillus subtilis, B. subtilis; read-out: MBC
Method: as §1, §8, §9, §10, §11, §12, §13, §14

Pseudomonas aeruginosa [13] = assay: MIC/MBC, paper disk diffusion; format: cell-based; details: Pseudomonas aeruginosa, P. aeruginosa
Method: as §1, §8, §9, §10, §11, §12, §13, §14

Staphylococcus aureus [14] = assay: MIC/MBC, paper disk diffusion; format: cell-based; details: Staphylococcus aureus, S. aureus
Method: as §1, §8, §9, §10, §11, §12, §13, §14

[15] = system: mammary gland breast cancer cell line (MCF-7); assay: Antiproliferative activity, MTT assay; format: cell-based, human; details: Homo sapiens, MCF7; MTT, 48 h; read-out: IC50 MCF-7
Method: (§15) 3-[4, 5-Dimethyl-2-thiazolyl)-2, 5-diphenyl-2 H-tetrazolium bromide (MTT) protocol is based on the cleavage of the tetrazolium salt by mitochondrial dehydrogenases in viable cells. Cells were dispensed in a 96 well sterile microplate (5 x 10^4 cells/well), and incubated at 37 °C with series of different concentrations, in DMSO, of each tested compound or Doxorubicin ® (positive control) for 48 h in a serum free medium prior to the MTT assay. After incubation, media were carefully removed, 40 µL of MTT (2.5 mg/mL) were added to each well and then incubated for an additional 4 h. The purple formazan dye crystals were solubilized by the addition of 200 µL of DMSO. The absorbance was measured at 590 nm using a SpectraMax® Paradigm® Multi-Mode microplate reader. The relative cell viability was expressed as the mean percentage of viable cells compared to the untreated control cells.
(§16) All experiments were conducted in triplicate and repeated in three different days. All the values were represented as mean ± SD. IC 50s were determined by probit analysis using SPSS software program (SPSS

[16] = system: hepatocellular carcinoma cell line (HepG2); assay: Antiproliferative activity, MTT assay; format: cell-based, human; details: Homo sapiens, HepG2; MTT, 48 h; read-out: IC50 HepG-2
Method: as §15, §16

Fusarium oxysporum [17] = assay: MIC/MFC, paper disk diffusion; format: cell-based; details: Fusarium oxysporum, F. oxysporum
Method: as §1, §8, §9, §10, §11, §12, §13, §14

Candida albicans [18] = assay: MIC/MFC, paper disk diffusion; format: cell-based; details: Candida albicans, C. albicans
Method: as §1, §8, §9, §10, §11, §12, §13, §14

[19] = St, mm ± standard deviation, sample at 0.5 mg/mL
[20] = Ef, mm ± standard deviation, sample at 0.5 mg/mL
[21] = Ec, mm ± standard deviation, sample at 0.5 mg/mL
[22] = Bs, mm ± standard deviation, sample at 0.5 mg/mL
[23] = Pa, mm ± standard deviation, sample at 0.5 mg/mL
[24] = Fo, mm ± standard deviation, sample at 0.5 mg/mL
[25] = Sa, mm ± standard deviation, sample at 0.5 mg/mL
[26] = Ca, mm ± standard deviation, sample at 0.5 mg/mL

Row | Compound | zone of inhibition at 500 µg/mL (Enterococcus faecalis [1]) | zone of inhibition at 500 µg/mL (Escherichia coli [2]) | zone of inhibition at 500 µg/mL (Bacillus subtilis [3]) | zone of inhibition at 500 µg/mL (Pseudomonas aeruginosa [4]) | zone of inhibition at 500 µg/mL (Fusarium oxysporum [5]) | zone of inhibition at 500 µg/mL (Salmonella typhi [6]; [19]) | zone of inhibition at 500 µg/mL (Staphylococcus aureus [7]) | zone of inhibition at 500 µg/mL (Candida albicans [8]) | also measured
1 | COc1ccc(Nc2n[nH]c(N=Cc3c(C)n(C)n(-c4ccccc4)c3=O)c2C(=O)Nc2ccc(C)cc2)cc1 [6c, 5-((1,5-Dimethyl-3-oxo-2-phenyl-2,3-dihydro-1H-pyrazol-4-yl)methyleneamino)-3-(p-methoxyphenylamino)-N-p-tolyl-1H-pyrazole-4-carboxamide] | 21 ± 0.54 mm | 22 ± 0.43 mm | 20 ± 0.11 mm | < 8 mm | 9 ± 0.35 mm | 15 ± 0.36 mm | 23 ± 0.29 mm | 17 ± 0.21 mm | –
2 | CN(C)[C@@H]1C(O)=C(C(N)=O)C(=O)[C@@]2(O)C(O)=C3C(=O)c4c(O)cccc4[C@@](C)(O)[C@H]3C[C@@H]12 [Tetracycline, reference compound] | – | – | – | – | – | – | – | – | zone of inhibition at 500 µg/mL (Enterococcus faecalis [1]; [20]): 22 ± 0.25 mm; zone of inhibition at 500 µg/mL (Escherichia coli [2]; [21]): 23 ± 0.2 mm; zone of inhibition at 500 µg/mL (Bacillus subtilis [3]; [22]): 25 ± 0.22 mm; zone of inhibition at 500 µg/mL (Pseudomonas aeruginosa [4]; [23]): 20 ± 0.5 mm; MBC (Enterococcus faecalis [9]; read-out: MBC): 93.8 µg/mL (≈ 211 µM); MIC (Enterococcus faecalis [9]; read-out: MIC): 62.5 µg/mL (≈ 141 µM); MBC (Salmonella typhi [10]): 43.8 µg/mL (≈ 98.4 µM); MBC (Escherichia coli [11]; read-out: MBC): 18.7 µg/mL (≈ 42.2 µM); MIC (Escherichia coli [11]; read-out: MIC): 15.6 µg/mL (≈ 35.1 µM); MBC (Bacillus subtilis [12]): 40.6 µg/mL (≈ 91.4 µM); MBC (Pseudomonas aeruginosa [13]; read-out: MBC): 87.5 µg/mL (≈ 197 µM); MIC (Pseudomonas aeruginosa [13]; read-out: MIC): 62.5 µg/mL (≈ 141 µM); MBC (Staphylococcus aureus [14]; read-out: MBC): 87.5 µg/mL (≈ 197 µM); MIC (Staphylococcus aureus [14]; read-out: MIC): 62.5 µg/mL (≈ 141 µM); zone of inhibition at 500 µg/mL (Fusarium oxysporum [5]; [24]): < 8 mm; zone of inhibition at 500 µg/mL (Salmonella typhi [6]): 21 ± 0.55 mm; zone of inhibition at 500 µg/mL (Staphylococcus aureus [7]; [25]): 25 ± 0.11 mm; zone of inhibition at 500 µg/mL (Candida albicans [8]; [26]): < 8 mm
3 | COc1cccc2c1C(=O)c1c(O)c3c(c(O)c1C2=O)C[C@@](O)(C(=O)CO)C[C@@H]3O[C@H]1C[C@H](N)[C@H](O)[C@H](C)O1 [Doxorubicin, reference compound] | – | – | – | – | – | – | – | – | IC50 [15]: 1.94 ± 0.8 µM; IC50 [16]: 3.92 ± 0.5 µM
4 | C[C@@H]1[C@H](O)[C@@H](C)/C=C/C=C/C=C/C=C/C=C/C=C/C=C/[C@H](O[C@@H]2O[C@H](C)[C@@H](O)[C@H](N)[C@@H]2O)C[C@@H]2O[C@](O)(C[C@@H](O)C[C@@H](O)[C@H](O)CC[C@@H](O)C[C@@H](O)CC(=O)O[C@H]1C)C[C@H](O)[C@H]2C(=O)O [Amphotericin B, reference compound] | – | – | – | – | – | < 8 mm | – | – | zone of inhibition at 500 µg/mL (Enterococcus faecalis [1]; [20]): < 8 mm; zone of inhibition at 500 µg/mL (Escherichia coli [2]; [21]): < 8 mm; zone of inhibition at 500 µg/mL (Bacillus subtilis [3]; [22]): < 8 mm; zone of inhibition at 500 µg/mL (Pseudomonas aeruginosa [4]; [23]): < 8 mm; MFC (Fusarium oxysporum [17]; read-out: MFC): 65.6 µg/mL (≈ 71 µM); MIC (Fusarium oxysporum [17]; read-out: MIC): 31.2 µg/mL (≈ 33.8 µM); MFC (Candida albicans [18]; read-out: MFC): 34.6 µg/mL (≈ 37.5 µM); MIC (Candida albicans [18]; read-out: MIC): 15.6 µg/mL (≈ 16.9 µM); zone of inhibition at 500 µg/mL (Fusarium oxysporum [5]; [24]): 18 ± 0.32 mm; zone of inhibition at 500 µg/mL (Staphylococcus aureus [7]; [25]): < 8 mm; zone of inhibition at 500 µg/mL (Candida albicans [8]; [26]): 22 ± 0.2 mm
5 | COc1ccc(Nc2n[nH]c(N=Cc3c(C)nn(-c4ccccc4)c3Cl)c2C(=O)Nc2ccc(Cl)cc2)cc1 [7d, 5-((5-Chloro-3-methyl-1-phenyl-1H-pyrazol-4-yl)methyleneamino)-N-(p-chlorophenyl)-3-(p-methoxyphenylamino)-1H-pyrazole-4-carboxamide] | 22 ± 0.35 mm | 27 ± 0.3 mm | 23 ± 0.22 mm | 17 ± 0.74 mm | 15 ± 0.14 mm | 17 ± 0.12 mm | 24 ± 0.33 mm | 20 ± 0.5 mm | –
6 | COc1ccc(Nc2n[nH]c(N=Cc3ccc(N4CCCCC4)cc3)c2C(=O)Nc2ccccc2)cc1 [8b, 3-(p-Methoxyphenylamino)-N-phenyl-5-(4-(piperidin-1-yl)benzylideneamino)-1H-pyrazole-4-carboxamide] | 12 ± 0.74 mm | 14 ± 0.21 mm | 15 ± 0.45 mm | < 8 mm | < 8 mm | 15 ± 0.2 mm | < 8 mm | 12 ± 0.65 mm | –
7 | COc1ccc(Nc2n[nH]c(N=Cc3ccc(N4CCCCC4)cc3)c2C(=O)Nc2ccc(C)cc2)cc1 [8c, 3-(p-Methoxyphenylamino)-5-(4-(piperidin-1-yl)benzylideneamino)-N-p-tolyl-1H-pyrazole-4-carboxamide] | 25 ± 0.14 mm | 18 ± 0.3 mm | 22 ± 0.41 mm | < 8 mm | < 8 mm | 14 ± 0.52 mm | 17 ± 0.78 mm | 19 ± 0.65 mm | –
8 | COc1ccc(Nc2n[nH]c(N=Cc3c(C)n(C)n(-c4ccccc4)c3=O)c2C(=O)Nc2ccc(Cl)cc2)cc1 [6d, N-(4-Chlorophenyl)-5-((1,5-dimethyl-3-oxo-2-phenyl-2,3-dihydro-1H-pyrazol-4-yl)methyleneamino)-3-(p-methoxyphenylamino)-1H-pyrazole-4-carboxamide] | 14 ± 0.47 mm | 19 ± 0.33 mm | 13 ± 0.41 mm | 12 ± 0.63 mm | < 8 mm | < 8 mm | < 8 mm | 13 ± 0.2 mm | –
